Experimental data as given in US20230190689A1, “METHODS AND COMPOSITIONS FOR INDUCING BROWN ADIPOGENESIS” (ENERGESIS PHARMACEUTICALS, INC., priority 2020, published 2023).

B1: BMP7: recombinant human BMP7 (rhBMP7), R&D Systems, reference agent (positive control) (protein, UniProt P18075 293-431, looked up)
Bone morphogenetic protein 7: STGSKQRSQNRSKTPKNQEALRMANVAENSSSDQRQACKKHELYVSFRDLGWQDWIIAPEGYAAYYCEGECAFPLNSYMNATNHAIVQTLVHFINPETVPKPCCAPTQLNAISVLYFDDSSNVILKKYRNMVVRACGCH

Assays:
CD34+ cells [1] = assay: Light microscopy of CD34+ cells for brown adipocyte differentiation (multilocular lipid-containing cells); assay type: cell-based, human; settings: CD34+ cells 6 days following the end of compound treatment and switch into MDM media
Description: (§1) Cells were seeded at 10,000 per cm^2 (48-well tissue culture, Chemglass #CLS-3500-048), cultured until confluency (1-4 days) at 37° C. in Endothelial cell growth medium-2 (EGM2) (BulletKit growth medium, Lonza #CC-3162) and until differentiation (6-12 more days). After 1-4 days in EGM2 media the cells were incubated with test agents (or positive controls) for 2-3 days (from day −3 or −2 to day 0). Rosiglitazone (1 μM) and rhBMP7 (6.3 nM) were used as reference agents (positive controls). Then (on day 0) the culture media (containing the test agents or positive controls) was removed, and minimal adipogenic medium (MDM) was added and the cells were left to differentiate of 6-12 days. The MDM media is a modification of the adipogenic media described by Rodriguez et al., and contains: DMEM/Ham's F-12 50/50 Mix (3.151 g/1, 17.5 mM D-glucose, 3.651 g/l L-glutamine) (Cellgro #10-090-CV), 5 μg/ml (0.86 μM) insulin, 1 μM dexamethasone, 100 μM 3-isobutyl-1-methylxanthine, 0.2 nM 3,3′,5-triiodo-L-thyronine, 10 μg/ml (127 nM) transferrin, and 1% penicillin-streptomycin. Adipocyte scores were determined by light microscopy and defined as the number of cells, on a per well basis, that contain multilocular lipid droplets, at the end of the differentiation of the cells, approximately 6 to 12 days following the end of compound treatment and switch into MDM media.
Pictures of cells were taken using a hand-held digital camera (Nikon Coolpix 950) and inverted microscope (Nikon TMS) used for cell culture observations; images were optimized using Paint.net version 4.0 functions for Auto-Level Brightness and Contrast.

DIO mice = assay: DIO mouse study of metabolic health, once-daily oral gavage for 28 to 56 days; assay type: in vivo, C57Bl/6 mice; settings: oral gavage once a day, bezafibrate 60 mg/kg, oxaprozin 50 mg/kg, vs vehicle
Description: Obesity and insulin resistance, an early stage in the development of type 2 diabetes (or pre-diabetes), was induced in C57Bl/6 mice by feeding the mice with a high fat diet (Research diet, Cat #D12492, 60/a fat kcal) for 12 weeks starting at 6 weeks of age. The mice were maintained at 22-23° C. with abundant bedding material, maintaining the animals in an environmental temperature close to their thermoneutrality, starting 2 weeks prior to the dosing period and for the full dosing period with a 12 h/12 h light/dark cycle.
Mice were dosed once per day by oral gavage (200 μl per mouse), first for 3 days with the vehicle (PBS+0.5% CMC+0.1% Tween-80) as acclimation for running into the study, then with either vehicle alone or testing material dissolved in the vehicle for […] (4 to 8 weeks).
Body weight was recorded every 3 days, body composition (fat and lean mass with EchoMRI) was assessed at the end of the study (University of Cincinnati Mouse Metabolic Phenotyping Center), blood glucose level (measured with a glucometer) was monitored 3-5 days before (baseline) and at the end of the dosing period.
At the end of the dosing period, animals were fasted for 6 hours and euthanized by CO2, blood was collected, and plasma was isolated and saved at −20° C. Plasma glucose, insulin and leptin levels were assessed 3-5 days before (baseline) and at the end of the dosing period (mice were fasted for 6 hours before all plasma collection) (University of Cincinnati Mouse Metabolic Phenotyping Center). Insulin sensitivity was determined using the homeostasis model assessment of insulin resistance (HOMA-IR). HOMA-IR=(plasma insulin [microIU/ml] x plasma glucose [mM])/22.5.
The mice were maintained on a high fat diet (60% calories from fat) throughout the study. An overnight fast was performed the last night of the study in preparation for glucose tolerance testing.

[2] = system: CD34+ brown adipocyte progenitor cells; assay: Multiplexed TaqMan real-time PCR of UCP1 and PPARγ2 mRNA (normalized to cyclophilin A) to quantify differentiation of CD34+ cells into brown adipocytes; assay type: cell-based, human; settings: for differentiation of brown adipocyte progenitor cells into brown adipocytes, as indicated by expression of UCP1 and PPARγ2: in vitro, first screen at 10 μM, actives retested at 1 nM to 50 μM
From the text: A robust method, previously disclosed, was used for detection of CD34+ cell differentiation into brown adipocytes by simultaneously quantifying mRNA species corresponding to the brown adipocyte marker UCP1, the adipocyte marker PPARγ2, and the “housekeeping” gene cyclophilin A which was used as the internal control.
This method permits analysis of a large number of samples to identify agents that enhance the differentiation of CD34+ cells into brown adipocytes. When differentiated into brown adipocytes, CD34+ cells express much higher levels of UCP1 and PPARγ2 mRNA for a given level of cyclophilin A. UCP1 and PPARγ2 mRNA levels normalized to cyclophilin A mRNA levels give an indication of the level of differentiation of the CD34+ cells into brown adipocytes, independent of the total number of cells in the sample.
Quantification of UCP1, PPARγ2 and cyclophilin A mRNA by multiplexed TaqMan real-time PCR was thus used to quantify differentiation of the CD34+ cells into brown adipocytes.
UCP1 is the key protein in brown adipocytes responsible for uncoupled respiration and is also highly specific for brown adipocyte differentiation. It is expressed exclusively by fully differentiated brown adipocytes and not by the CD34+ progenitor cells. We used a real-time semi-quantitative RT PCR-based assay for detection of UCP1 expression, in order to screen for brown adipocyte recruiters. […] The assay has the added advantage of allowing light microscopic visualization of the distinct morphological changes accompanying differentiation into brown adipocytes. This serves as further confirmation of differentiation.
as §1
Total RNA was prepared from cells using PureLink RNA Isolation Kit (Invitrogen #12183-016). Alternatively, cells were simply lyzed by freezing (−80° C.). First strand cDNA were synthesized using the High Capacity cDNA Reverse Transcription kit (Applied Biosystems, Foster City, Calif.) and random primers.
Quantitative real-time PCR was performed using an Applied Biosystems StepOnePlus™ instrument, TaqMan Gene Expression Master Mix (Applied Biosystems #4369016), and custom TaqMan gene expression probes and primers for human uncoupling protein-1 “UCP1” (GenBank NM_021833) and for human peptidylprolyl isomerase A “cyclophilin A” (GenBank NM_021130).
Cyclophilin A was used as a control to account for any variations due to the efficiency of reverse transcription. Arbitrary units were determined by normalizing target mRNA levels to cyclophilin A mRNA levels (based on Cts).

CD34+ cells [3] = assay: Quantification of UCP1 protein by fluorescence immunohistochemistry (IHC); assay type: cell-based, human
Description: Culturing and differentiation of CD34+ cells into brown adipocytes were performed using adipogenic differentiation medium lacking (Minimal Differentiation Medium, MDM) or containing 1 μM rosiglitazone (Reference Differentiation Medium, RDM). After 15 days of differentiation cells were fixed with 4% Paraformaldehyde PBS pH 7.4, and incubated with a UCP1 antibody (Abcam ab23841) and Alexafluor 488 goat anti-rabbit antibody to quantify relative UCP1 levels (green) according to standard protocols. Prior to fixation of cells, nuclei were labeled with 5 μM DAPI (blue) for 10 minutes. Each treatment condition was evaluated in triplicate in a 96-well plate corresponding to approximately 360-480 cells for each data point in total. The InCell 1000 Developer Toolbox software was used to develop an automated cell detection script to measure UCP1 signal intensity, using the nuclei and cytoplasm detection algorithms. As a readout, total intensity of UCP1 signal within the cell was used, normalized to cell number.

Molecule	brown adipocyte formation by light microscopy (CD34+ cells [1])	body fat mass (DIO mice; MRI)	body weight (DIO mice)	glycemia (DIO mice)	insulin resistance index (HOMA-IR) (DIO mice)	plasma insulin (DIO mice)	plasma leptin (DIO mice)	differentiation of brown adipocyte progenitor cells into brown adipocytes, as indicated by expression of UCP1 and PPARγ2 [2]	agents identified by quantification of UCP1 protein by fluorescence IHC (CD34+ cells [3])	recruitment of brown adipocytes ([2]; CD34+ cells, rosiglitazone 1 μM, BMP7 6 nM (most effective individual concentrations), day −3 to d0)	response of the UCP1/PPARγ2 RT-PCR assay to positive controls ([2]; positive controls)
CC(C)(Oc1ccc(CCNC(=O)c2ccc(Cl)cc2)cc1)C(=O)O [bezafibrate, 2-(4-{2-[(4-chlorobenzoyl)amino]ethyl}phenoxy)−2-methylpropanoic acid]	promote brown adipocyte formation	significant decreases	significant decreases	significant decreases	significant decreases	significant decreases	significant decreases	promote the differentiation of brown adipocyte progenitor cells into brown adipocytes	–	–	–
O=C(O)c1cc(-c2ccc(F)cc2F)ccc1O [diflunisal, Diflunisal]	promote brown adipocyte formation	–	–	–	–	–	–	promote the differentiation of brown adipocyte progenitor cells into brown adipocytes	identified using this technique	–	–
CCCN(CCC)S(=O)(=O)c1ccc(C(=O)O)cc1 [probenecid, Probenecid]	promote brown adipocyte formation	–	–	–	–	–	–	promote the differentiation of brown adipocyte progenitor cells into brown adipocytes	identified using this technique	–	–
B1	promote brown adipocyte formation	–	–	–	–	–	–	–	–	robustly increase the recruitment of brown adipocytes	appropriate dose-responsive behavior
